In patent US6995188B2 (priority 2002, dated 2006):

Key:
HL-60 cells = format: cell-based, human
[1] = pH 5
[2] = test system: panel of 60 tumor cell lines; format: cell-based, human
NB4 cells = format: cell-based, human
in vivo = settings: Swiss Webster, mouse
physchem = settings: water
[3] = test system: mitochondrial membrane potential; format: cell-based, human
[4] = test system: human leukemia cell lines; format: cell-based

C[As](C)SC[C@H](NC(=O)CC[C@H](N)C(=O)O)C(=O)NCC(=O)O [SGLU1, S-(dimethylarsino) glutathione]
effect on cell cycle (HL-60 cells): marked accumulation of cells in S-phase of cell cycle
loss [1]: Less than 10%
anticancer activity, NIH panel [2]: showed evidence of activity at low concentrations against a variety of tumor cell lines
induction of maturation (CD11b expression) (NB4 cells): do not induce maturation
LD50 (in vivo): 350 mg/kg
MTD (in vivo; iv): 350 mg/kg
solubility (physchem): ~60 mg/mL
change of the potential of mitochondrial membrane (CMXRos staining) [3]: involves change of the potential of mitochondrial membrane
toxicity to normal cells, long-term clonogenic assay (normal donor cells): less toxic then arsenic trioxide to normal cells
anti-cancer activity against a panel of human leukemia cell lines [4]: significant anti-cancer activity
